The values below come from patent EP0561237A2, “Enantiomer, (-)-N-(2-ethoxyphenyl)-N'-(1,2,2-trimethylpropyl)-2-nitromethene-1,1-diamine, process for its preparation and its use” (BAYER AG, priority 1992, dated 1993).

Read-outs that look alike come from different tables or passages of the source.

For one experiment, the system named is Neuronen. Nature of the experiment: Effect (hyperpolarising activity) on neurons. In kind it is cell-based, Ratten.
The subject of experiment [1] is MIPP-N1E-115-Neuroblastomlinie. Nature of the experiment: Hyperpolarising activity in neuroblastoma cell line. As to conditions: for hyperpolarisierende Wirkung: MIPP-N1E-115 neuroblastoma line. Format: cell-based.
In a further experiment the test system is A10-Zellen. Nature of the experiment: Activity on vascular tissue (A10 cells). In kind it is cell-based. As to conditions: read-out: IC₅₀.
The subject of the next experiment is ATP-abhängige K-Kanäle. Nature of the experiment: Glyburide sensitivity of the hyperpolarising effect. Format: cell-based. As to conditions: with glyburide.
The test system of experiment [2] is Zellinie des glatten Muskels. Nature of the experiment: Activity in a smooth muscle cell line. In kind it is cell-based.
For experiment [3], the system named is Neuronen vom Typ der Pyramidenzellen aus dem Hippocampus. Nature of the experiment: Neuroprotection on single neurons of the central nervous system. Format: cell-based, Ratten. Particulars: single neurons from rat CNS; inhibition of raised calcium during long-term depolarisation.
The next experiment relates to Gefäßmuskulatur. As to conditions: described in DE 32 32 462; cited from earlier work.

As to `CCOc1ccccc1NC(=C[N+](=O)[O-])NC(C)C(C)(C)C` (single isomer, unassigned; (+)) [Beispiel 2, (+)-N-(2-Ethoxyphenyl)-N'-(1,2,2-trimethylpropyl)-2-nitroethen-1,1-diamin], the “Blockierung der Wirkung des (-)-Enantiomers auf Neuronen” value in the experiment on Neuronen ((+)-enantiomer 1 µM against effect of 5 pM (-)-enantiomer) is listed as “blockiert”. Further, the EC50 in the experiment on Neuronen (Neuron, in neurons, read-out: EC₅₀-Wert) turned out to be 500 nM. In the experiment on Neuronen (multiple of the 5 pM concentration of the (-)-enantiomer in neurons), the “Konzentration, bei der wirksam, als Vielfaches der Konzentration des (-)-Enantiomers” value is given as > 10 000 -fach. In addition, the “hyperpolarisierende Wirkung” value in experiment [1] (listed as (+)-Enantiomer) was “nicht auf das (+)-Enantiomer anspricht”. Also, in the experiment with A10-Zellen (listed as (+)-Enantiomer), the IC50 was determined as 15 nM. The “hyperpolarisierende Wirkung, Blockierbarkeit durch Glyburide” value in the experiment on ATP-abhängige K-Kanäle (listed as (+)-Enantiomer) is recorded as “durch Glyburide inhibierbares Hyperpolarisierungsmittel”.

In the case of `CCOc1ccccc1NC(=C[N+](=O)[O-])NC(C)C(C)(C)C` (single isomer, unassigned; (-)) [Beispiel 1, (-)-N-(2-Ethoxyphenyl)-N'-(1,2,2-trimethylpropyl)-2-nitroethen-1,1-diamin], the IC50 in the experiment on Neuronen (Neuron, in neurons, read-out: IC₅₀-Wert) worked out at 0.005 nM; with A10-Zellen (listed as (-)-Enantiomer), 250 nM. The “hyperpolarisierende Wirkung” value in experiment [1] (listed as (-)-Enantiomer) was “wirksam”. Also, in experiment [1] (Neuroblastoma cell, newly found hyperpolarising activity not blocked by glyburide, read-out: EC₅₀), the EC50 is < 0.01 nM. For the same compound, the Wirksamkeit entry in experiment [2] is given as “unwirksam”. In addition, the Neuroprotektion result in experiment [3] is “bemerkenswerte Neuroprotektion”. In the experiment on ATP-abhängige K-Kanäle (listed as (-)-Enantiomer), the “hyperpolarisierende Wirkung, Blockierbarkeit durch Glyburide” value is “durch Glyburide nicht blockiert”.

Consider `CCOc1ccccc1NC(=C[N+](=O)[O-])NC(C)C(C)(C)C` (racemic) [racemische Gemisch, N-(2-Ethoxyphenyl)-N'-(1,2,2-trimethylpropyl)-2-nitroethen-1,1-diamin], for which the “Wirkung auf die Gefäßmuskulatur” value in the experiment on Gefäßmuskulatur is given as “eine Wirkung auf die Gefäßmuskulatur ausübt”.
